Test results: patent publication US4088752A, “Oral composition for plaque and caries inhibition” (Gaba AG, priority 1974, dated 1978)

What was measured:
Type in all cases: in vivo, Osbourne-Mendel rats
[1] = test system: Streptococcus mutans OMZ 176; test: Rat caries experiment: smooth surface plaque, smooth surface caries and fissure caries after local application of aqueous test solutions; settings: for Average number per rat of smooth surface plaque extent (PU) / Average number per rat of advanced dentinal fissure lesions (B) / Average number per rat of smooth surface carious units (E): means of 10 animals; for Average number per rat of smooth surface plaque extent (PU): standard error 0.29; for Average number per rat of advanced dentinal fissure lesions (B): standard error 0.94; for Average number per rat of smooth surface carious units (E): standard error 1.81; for cariostatic effects of sodium fluoride and sodium trimetaphosphate together: smooth surface caries, combination of the two
Experimental: To examine the effect of the compounds used according to the present invention, a series of animal experiments were carried out. In these tests an aqueous solution of the test compounds was applied locally to determine its action in inhibiting plaque and caries.
(§1) On day 13 the animals with their dams were transferred to stainless-steel cages and fed powdered Nafag diet. The animals were weaned when 22 days old and distributed at random among the treatments.
(§2) 0.1 ml of the test solutions were applied once daily during the whole 20-day experimental period in which diet 2000a and tap water were available ad libitum. On day 22 the animals were superinfected twice with Streptococcus mutans OMZ 176. Caries, molar surface dissolution rate and fluoride content were assessed acccording to routine procedures.

[2] = Fluoride content of maxillary molar surfaces; settings: maxillary molars m1 + m2, 15 sec. in 2N hydrochloric acid under agitation; for Fluoride concentration, cumulated layers: first and second cumulated layers, standard error 12.4; for Fluoride concentration, second layer: standard error 10.4; for Fluoride concentration, first layer: standard error 16.6
Experimental: (§3) Groups of 10 Osbourne-Mendel rats, which are particularly suitable for caries-inhibition studies, were subjected to the following treatments:
as §2
Fluoride concentrations in the first, the second and the
first and second cumulated layers (ppm F) in the maxillary
molars (m1 + m2, 15 sec. in 2N hydrochloric acid under

[3] = Weight gain of rats during the 20-day experimental period; settings: means of 10 animals, standard error 3.4
Experimental: as §3, §1, §2

[4] = Postmortal rat molar solubility (molar surface dissolution rate); settings: per mand: m1 + m2 in 10 ml 0.025 M acetate buffer pH 4, 60 min., 37° C; standard error 5.7
Experimental: as §2

[5] = rats, 20-day experimental period

| Compound | Fluoride concentration, cumulated layers [2] [ppm F] | Fluoride concentration, second layer [2] [ppm F] | Fluoride concentration, first layer [2] [ppm F] | Average number per rat of smooth surface plaque extent (PU) ([1]; 20-day experimental period) | Average number per rat of advanced dentinal fissure lesions (B) ([1]; 20-day experimental period) | Average number per rat of smooth surface carious units (E) ([1]; 20-day experimental period) | Smooth surface caries (statement) [1, 5] | cariostatic effects of sodium fluoride and sodium trimetaphosphate together [1] | weight gains [3] [g] | Postmortal rat molar solubility [4] [μgP] | also measured |
| --- | --- | --- | --- | --- | --- | --- | --- | --- | --- | --- | --- |
| N-(2-hydroxyethyl)-2-heptadecen-9-yl-imidazoline orthophosphate [Example 6] |  |  |  |  |  |  |  |  |  |  | Smooth surface plaque, average extent (statement) [1, 5]: significantly lower (PF <0.001) |
| N,N,N'-tris-(7-hydroxyethyl)-N'-octadecyl-1,3-diaminopropanepyrophosphate [Example 7] | 143 | 94 | 187 |  |  |  |  |  |  |  |  |
| O=P1([O-])OP(=O)([O-])OP(=O)([O-])O1.[Na+].[Na+].[Na+] [Treatment 4, sodium trimetaphosphate] |  |  |  | 2.7 | 6.1 | 10.1 | effective | additive | 60 |  |  |
| sodium fluoride [Treatment 3] |  |  |  | 2.5 | 9.8 | 9.0 | effective | additive | 65 |  |  |
| N,N,N'-tris-(2-hydroxyethyl)-N'-octadecyl-1,3-diaminopropanemonohydrofluoride monoorthophosphate [Treatment 9] | 74 | 53 | 92 |  |  |  |  |  |  | 130 |  |
| N,N,N'-tris-(2-hydroxyethyl)-N'-octadecyl-1,3-diaminopropanediorthophosphate [Treatment 8] |  |  |  |  |  |  |  |  |  | 121 |  |
